Measured values reported in patent US20240425529A1, “BORIC ACID DERIVATIVE” (SHOUYAO HOLDINGS (BEIJING) CO., LTD., priority 2021, published 2024).

Columns and labels:
[1] = system: multiple myeloma cells U266B1; test: In-vivo assay II: subcutaneous xenograft model of multiple myeloma cells U266B1 in mice; settings: NOG mice
Procedure: Evaluation assay of LMP7 Inhibitors in a subcutaneous xenograft model of multiple myeloma cells U266B1 in mice
Female NOG mice, week old: 6-8 weeks old, certificate No: SCXK(Jing) 2021-0006, purchased from Beijing Vital River Experimental Animal Technology Co. Ltd.
The specific method was that mice were housed in an SPF environment. Every 5 mice were housed in 1 cage. Animals were free to drink and eat and were adaptively raised for one week. Laboratory conditions: room temperature 18-24° C., relative humidity 40%-70%, ventilated with a ventilation fan, natural light source for 12 hours per day. Cages, bedding, drinking water, and feed were replaced twice a week, and the replaced cages and drinking water bottles were cleaned and then sterilized by steam under high pressure. Cages, room walls, and floors were cleaned twice a week with 84-disinfectant or bromogeramine.
U266b1 (China Center for Type Culture Collection, College of Life Sciences at Wuhan University) cells were cultured using RPMI-1640 medium supplemented with 20% fetal bovine serum and 1% Penicillin-Streptomycin at 37° C. in an atmosphere of 5% CO2 in the air. Cells were routinely sub-cultured twice weekly, and cells grown in the exponential growth phase were harvested and counted. Cell suspensions were mixed well at 1:1 in Matrigel™ (Corning Matrigel™ Normal Basement Membrane) for tumor cell inoculation.
Each mouse was subcutaneously injected with 0.1 ml of PBS-suspended U266B1 cell suspension (containing 1.0×10^7 cells, 50% Matrigel) at the axillary sites on both sides to establish a subcutaneous transplanted tumor model of multiple myeloma cells U266B1 in mice. […] Tumor diameter and body weight were measured 3 times per week during the experiment. […]
The study endpoints were tumor growth inhibition, maximum tumor burden (individual tumor size equal to 10% of body weight), and weight loss greater than 20% of body weight at the start of treatment. The tumor volume was calculated as V=0.5×a×b^2, where V is the tumor volume and a and b are the length and width of the tumor, respectively. […]

[2] = Animal pharmacokinetic study in rats, single gavage; format: in vivo; settings: rat, po; male rats, single gavage 5 mg/kg, plasma
Procedure: Three healthy adult male rats from Beijing Vital River Experimental animal Technology Co. Ltd were used for animal pharmacokinetic experiments. The compounds were suspended in 20% sulfobutyl ether-β-cyclodextrin (W/W/V) at a concentration of 1 mg/mL at a dosing volume of 5 mL/kg by single gavage at a dose of 5 mg/kg. Animals were fasted overnight before the experiment, from 10 hours before the administration to 4 hours after the administration. Blood was collected at 0.25, 0.5, 1, 2, 4, 6, 8, and 24 hours after the administration. The animals were anesthetized with isoflurane. About 0.4 mL of whole blood was collected from the orbital venous plexus using a glass blood collection tube and placed in a heparin anticoagulant tube. The sample was centrifuged at 4200 rpm for 5 min at 4° C. The plasma was transferred to a centrifuge tube and stored at −80° C. for later analysis. The plasma sample analysis used the acetonitrile protein precipitation method to extract the compound to be tested and internal standard (Warfarin or Propranolol) from rat plasma, and the extraction solution was analyzed by LC/MS/MS. The plasma concentration-time data of individual animals measured were analyzed using anon-compartmental model using the WinNonlin (version 5.2.1; Pharsight company) software, and the following pharmacokinetic parameters were obtained: maximum (peak) plasma drug concentration Cmax; Time to max Tmax; the area under the curve AUC0-inf of blood drug concentration-time from half-life T½ and extrapolation to infinite time.

[3] = 0.3 mg/kg orally once daily, Day 14

Row | SMILES | animal death or weight loss caused by the compound ([1]; 0.3 mg/kg orally once daily for 14 days) | T/C [1, 3] [%] | TGI (tumor growth inhibition rate) [1, 3] [%] | AUC(0-inf) [2] [ng·h/mL] | Cmax [2] [ng/mL] | Tmax [2] [h] | half-life [2] [h]
1 | O=C(Nc1cnccn1)C(=O)N[C@@H](Cc1coc2ccccc12)B(O)O [Ex. 9, (R)-(2-(benzofuran-3-yl)-1-(2-oxo-2-(pyrazin-2-ylamino)acetamido)ethyl) boronic acid] | no animal death or weight loss | 9.76 | 104.45 | 38600 | 3880 | 2.67 | 5.58
2 | O=C(Nc1ccccn1)C(=O)N[C@@H](Cc1coc2ccccc12)B(O)O [Ex. 12] |  |  |  | 26500 | 3930 | 0.58 | 14.7
3 | O=C(Nc1nc2ccccc2s1)C(=O)N[C@@H](Cc1coc2ccccc12)B(O)O [Ex. 27, (R)-(2-(benzofuran-3-yl)-1-(2-oxo-2-((benzo[d]thiazol-2-yl)amino)acetamido)ethyl)boronic acid] |  |  |  | 24200 | 1910 | 3.33 | 5.17
4 | Cc1cnc(NC(=O)C(=O)N[C@@H](Cc2coc3ccccc23)B(O)O)s1 [Ex. 32, (R)-(2-(benzofuran-3-yl)-1-(2-oxo-2-((5-methylthiazol-2-yl)amino)acetamido)ethyl)boronic acid] |  |  |  | 22200 | 1090 | 0.67 | 25.3
5 | O=C(Nc1cc(Cl)ccn1)C(=O)N[C@@H](Cc1coc2ccccc12)B(O)O [Ex. 49, (R)-(2-(benzofuran-3-yl)-1-(2-oxo-2-((4-chloropyridin-2-yl)amino)acetamido)ethyl)boronic acid] |  |  |  | 25400 | 1430 | 0.92 | 16.4
